Source: US20150259371A1, “METHODS AND COMPOUNDS FOR INHIBITING GLYCOSYLTRANSFERASES” (SIMON FRASER UNIVERSITY, priority 2010, published 2015)

System: transcription factor Sp1
Assay: Western blot of Sp1 levels in CHO cells
Assay type: cell-based, Chinese hamster
Conditions: 50 μM, 4 days
Procedure: (A) Cell proliferation curves over the course of 5 days for CHO cells following no (circles), 50 μM Ac-GlcNAc (squares) or 50 μM Ac-5SGlcNAc (triangles) treatment. The error bars indicate the deviation from the mean for triplicate measurements. […] Upper panel, probed with anti-O-GlcNAc antibody (CTD110.6); lower panel, probed with anti-actin antibody. (B) Cell proliferation curves over the course of 5 days for EMEG heterozygous mouse embryonic fibroblast cells following no (circles), 50 μM Ac-GlcNAc (squares) or 50 μM Ac-5SGlcNAc (triangles) treatment. The error bars indicate the deviation from the mean for triplicate measurements. […] Upper panel, probed with anti-O-GlcNAc antibody (CTD110.6); lower panel, probed with anti-actin antibody. (C) Western blots of CHO cell lysates following no (C) or Ac-5SGlcNAc administration at 50 μM for 4 days. Probed with (from top to bottom) anti-Spl antibody, anti O-GlcNAc (CTD110.6) antibody and anti-actin antibody. Full blot of the anti-Sp 1 is shown in panel (d). […]
Cellular responses to Ac-5SGlcNAc (9) treatment and consequent decreases in O-GlcNAc levels were evaluated. […] We quantitatively evaluated cell proliferation and established growth curves over the course of 5 days in both CHO and EMEG32 heterozygous mouse embryonic fibroblast cells treated with 50 μM Ac-5SGlcNAc (9), 50 μM Ac-GlcNAc (G), or vehicle (FIGS. 5A-B).

CC(=O)NC1C(OC(C)=O)SC(COC(C)=O)C(OC(C)=O)C1OC(C)=O [Compound 9, N-Acetyl-1,3,4,6-tetra-O-acetyl-α-D-5-thio-glucosamine] was tested, and the Sp1 levels was “decreases were observed in the levels of transcription factor Sp1”.
